Consider 33 compounds from US20120020915A1, “Compounds and Methods for Treating Cancer and Diseases of the Central Nervous System” (QUEENS UNIVERSITY AT KINGSTON, priority 2007, published 2012).

SMILES strings stand for the structures. Where a name gives a salt, the structure may show the parent alone. Read-outs that look alike come from different tables or passages of the source. Where only a bound is given, the exact number is not on record here.

One assay deals with T1, HO-1 (rat spleen) (Rattus norvegicus, UniProt P06762).
T1 construct: Spleen microsomes were used as a source of HO-1; from tissue; host or cells: spleen microsomal fraction of adult male Sprague-Dawley rats
T1 sequence (P06762 1-289): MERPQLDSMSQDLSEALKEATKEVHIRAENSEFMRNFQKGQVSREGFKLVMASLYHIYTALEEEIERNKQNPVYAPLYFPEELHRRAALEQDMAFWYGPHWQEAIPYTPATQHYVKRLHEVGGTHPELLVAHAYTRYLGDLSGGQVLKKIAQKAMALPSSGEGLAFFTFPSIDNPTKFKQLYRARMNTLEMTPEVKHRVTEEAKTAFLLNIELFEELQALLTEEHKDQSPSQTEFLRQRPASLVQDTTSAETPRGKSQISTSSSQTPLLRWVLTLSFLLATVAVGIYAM
Put plainly: HO enzymatic activity, rat spleen microsomal fraction (CO formation from methemalbumin). Format: biochemical. On the procedure: (§1) Incubations for HO activity analysis were done under conditions for which the rate of CO formation (pmol CO×min^−1×mg protein^−1) was linear with respect to time and microsomal protein concentration. Briefly, reaction mixtures (150 μL) consisting of 100 mM phosphate buffer (pH 7.4), 50 μM methemalbumin, and 1 mg/mL protein were pre-incubated with the inhibitors at final concentrations ranging from 0.1-100 μM for 10 minutes at 37° C. Reactions were initiated by adding NADPH at a final concentration of 1 mM and incubations were performed for an additional 15 minutes at 37° C.
(§2) Incubations for HO activity analysis were done under conditions for which the rate of CO formation (pmol CO/mg protein/minute) was linear with respect to time and microsomal protein concentration. Briefly, reaction mixtures (150 μL) consisting of 100 mM phosphate buffer (pH 7.4), 50 μM methemalbumin and 1 mg/mL protein were pre-incubated with the vehicle (ethanol or water in which the inhibitors were dissolved), or inhibitors at final concentrations ranging from 0.1-1000 μM for 10 minutes at 37° C. Reactions were initiated by adding β-NADPH at a final concentration of 1 mM and incubations were carried out for an additional 15 minutes at 37° C. Reactions were stopped by instantly freezing the reaction mixture on pulverized dry ice and CO formation was measured by gas chromatography using a TA 3000R Process Gas Analyzer (Trace Analytical/Ametek, Newark, Del., USA).
(§3) The values on the abscissa represent the decimal logarithm of the inhibitor's concentration (in μM), whereas the values of the activity on the ordinate are expressed as a percentage of the control experiments without inhibitor.
(§4) The IC50 values for the replicate experiments were employed to generate the reported standard deviation value.

The next assay addresses T2, HO-2 (rat brain) (Rattus norvegicus, UniProt P23711).
T2 construct: brain microsomes were used as a source of HO-2; from tissue; host or cells: brain microsomal fraction of adult male Sprague-Dawley rats
T2 sequence (P23711 1-315): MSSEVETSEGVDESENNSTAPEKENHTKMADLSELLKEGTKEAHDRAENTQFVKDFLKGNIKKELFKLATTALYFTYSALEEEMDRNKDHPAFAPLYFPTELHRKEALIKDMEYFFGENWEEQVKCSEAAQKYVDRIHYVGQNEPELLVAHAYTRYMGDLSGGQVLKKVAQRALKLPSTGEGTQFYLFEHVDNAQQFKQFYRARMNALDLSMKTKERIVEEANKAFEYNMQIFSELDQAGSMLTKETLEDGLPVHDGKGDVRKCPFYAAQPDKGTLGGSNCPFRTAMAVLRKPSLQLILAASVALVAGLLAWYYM
Briefly: HO enzymatic activity, rat brain microsomal fraction (CO formation from methemalbumin). Format: biochemical. On the procedure:
as §1, §2, §3, §4

Setting [1] is: CO formation from methemalbumin, mean ± SD of replicate experiments, read-out: IC50 HO-1 (rat spleen/μM).
Where [2] appears, read: CO formation from methemalbumin, mean ± SD of replicate experiments, read-out: IC50 HO-2 (rat brain)/μM).
Setting [3] is: IC50 HO-1 (rat spleen/μM), CO formation from methemalbumin, mean ± SD of replicate experiments.
[4] abbreviates: IC50 HO-2 (rat brain)/μM), CO formation from methemalbumin, mean ± SD of replicate experiments.
Setting [5] is: IC50 HO-1 (rat spleen/μM), average ± SD of replicate experiments.
[6] abbreviates: IC50 HO-2 (rat brain)/μM), average ± SD of replicate experiments.
The mark [7] stands for this setting: average ± SD of replicate experiments, read-out: IC50 HO-1 (rat spleen/μM).
Setting [8] is: average ± SD of replicate experiments, read-out: IC50 HO-2 (rat brain)/μM).

As to `O=C(CCc1ccccc1)Cn1cnc(-c2ccccc2)c1` [QC-124, 4-Phenyl-1-(4-phenyl-imidazol-1-yl)-butan-2-one hydrochloride], the IC50 at HO-1 (rat spleen) (setting [1]) was 9 ± 2 µM; at HO-2 (rat brain) (setting [2]) it was 145 ± 54 µM.

As for `c1ccc(CCC2(Cn3cccn3)OCCO2)cc1` [QC-95, 2-phenylethyl-2-[(1H-pyrazole-1-yl)methyl]-1,3-dioxolane hydrochloride], the IC50 on HO-1 (rat spleen) (setting [1]) and at HO-2 (rat brain) (setting [2]) was above 100 µM each time.

`CS(=O)(=O)c1nccn1CC(=O)CCc1ccccc1` [QC-125, 1-(2-Methanesulfonyl-imidazol-1-yl)-4-phenyl-butan-2-one]: the IC50 at HO-1 (rat spleen) (setting [1]) and at HO-2 (rat brain) (setting [2]) was above 100 µM in each case.

Take `Cc1ccc(S(=O)(=O)OC[C@@H]2CO[C@](CCc3ccc(Cl)cc3)(Cn3ccnc3)O2)cc1` [QC-4, (2S,4S)-2-[2-(4-chlorophenyl)ethyl]-2-[(1H-imidazol-1-yl)methyl]-4-[(p-toluenesulfonyloxy)methyl]-1,3-dioxolane dihydrochloride]: the IC50 turned out to be 19 ± 9 µM against HO-1 (rat spleen) (setting [3]) and 48 ± 6 µM on HO-2 (rat brain) (setting [4]).

Regarding `O=C(CCc1ccccc1)Cn1cnc2ccccc21` [QC-128, 1-Benzoimidazol-1-yl-4-phenyl-butan-2-one], the IC50 at HO-1 (rat spleen) (setting [1]) and on HO-2 (rat brain) (setting [2]) was above 100 µM each time.

For the compound `O=C(CBr)CCc1ccc(Br)cc1` [QC-59, 1-bromo-4-(4-bromophenyl)butan-2-one], the IC50 came out at 42 ± 5 µM on HO-1 (rat spleen) (setting [1]) and 125 ± 22 µM at HO-2 (rat brain) (setting [2]).

Consider `COC(=O)c1ncn(CC(=O)CCc2ccccc2)n1` [QC-135, 1-(2-Oxo-4-phenyl-butyl)-1H-[1,2,4]triazole-3-carboxylic acid methyl ester], for which the IC50 on HO-1 (rat spleen) (setting [1]) and on HO-2 (rat brain) (setting [2]) was above 100 µM each time.

Take `O=C(Cn1ccnc1)c1ccc(-c2ccccc2)cc1` [QC-166, 1-Biphenyl-4-yl-2-imidazol-1-yl-ethanone hydrochloride]: the IC50 against HO-1 (rat spleen) (setting [5]) was found to be 2.1 ± 0.7 µM; at HO-2 (rat brain) (setting [6]), 3 ± 0.7 µM.

In the case of `COc1ccc(CCC(O)Cn2ccnc2)cc1` (stereo not drawn) [QC-33, 4-(4-methoxyphenyl)-1-(1H-imidazol-1-yl)butan-2-ol hydrochloride], the IC50 came to 0.7 ± 0.1 µM against HO-1 (rat spleen) (setting [3]) and 6 ± 4 µM on HO-2 (rat brain) (setting [4]).

For `c1ccc2[nH]c(NCCCCCN3CCCCC3)nc2c1` [QC-144, (1H-Benzoimidazol-2-yl)-(5-piperidin-1-yl-pentyl)-amine], the IC50 at HO-1 (rat spleen) (setting [7]) and on HO-2 (rat brain) (setting [8]) was above 100 µM each time.

Regarding `COc1ccc(CCC(=O)Cn2ccnc2)cc1` [QC-72, 1-(1H-imidazol-1-yl)-4-(4-methoxyphenyl)-2-butanone hydrochloride], the IC50 was 2.2 ± 0.9 µM on HO-1 (rat spleen) (setting [3]) and 29 ± 19 µM against HO-2 (rat brain) (setting [4]).

For the compound `Nc1cc(Cl)ccc1-c1nnn[nH]1` [QC-29, 5-(2-amino-4-chlorophenyl)-1H-tetrazole], the IC50 at HO-1 (rat spleen) (setting [1]) and at HO-2 (rat brain) (setting [2]) was above 100 µM in each case.

On to `CS(=O)(=O)c1ncn(CC(=O)CCc2ccccc2)n1` [QC-155, 1-(3-Methanesulfonyl-[1,2,4]triazol-1-yl)-4-phenyl-butan-2-one], for which the IC50 on HO-1 (rat spleen) (setting [7]) and on HO-2 (rat brain) (setting [8]) was above 100 µM in each case.

Consider `O=C(O)Cn1ccnc1` [QC-66, Imidazol-1-yl-acetic acid], for which the IC50 on HO-1 (rat spleen) (setting [1]) and at HO-2 (rat brain) (setting [2]) was above 100 µM in each case.

Turning to `Cn1c(NCCc2c[nH]cn2)nc2ccccc21` [QC-147, [2-(1H-Imidazol-4-yl)-ethyl]-(1-methyl-1H-benzoimidazol-2-yl)-amine dihydrochloride], the IC50 against HO-1 (rat spleen) (setting [5]) and on HO-2 (rat brain) (setting [6]) was above 100 µM each time.

As for `Clc1ccc(CCC2(Cn3ccnc3)O[C@H]3CCCC[C@H]3O2)cc1` (stereo partly drawn) [QC-71, 1-{2-[2-(4-Chlorophenyl)-ethyl]-hexahydrobenzo[1,3]dioxol-2-ylmethyl}-1H-imidazole], the IC50 against HO-1 (rat spleen) (setting [3]) was 69 ± 7 µM; against HO-2 (rat brain) (setting [4]) it was above 100 µM.

As to `c1cn(CCCCn2ccnc2)cn1` [QC-88, 1,4-bis-(1H-imidazol-1-yl)butane dihydrochloride], the IC50 at HO-1 (rat spleen) (setting [1]) and at HO-2 (rat brain) (setting [2]) was above 100 µM in each case.

Consider `COC(=O)c1cncn1CC(=O)CCc1ccccc1` [QC-134, 3-(2-Oxo-4-phenyl-butyl)-3H-imidazole-4-carboxylic acid methyl ester], for which the figures for the IC50 at HO-1 (rat spleen) (setting [1]) and on HO-2 (rat brain) (setting [2]) were 55 ± 2 µM and above 100 µM, respectively.

`CCC(O)Cn1ccnc1` (stereo not drawn) [QC-31, 1-(1H-imidazol-1-yl)butan-2-ol hydrochloride]: the IC50 is 131 ± 38 µM against HO-1 (rat spleen) (setting [3]) and above 100 µM against HO-2 (rat brain) (setting [4]).

On to `CN(C)CCC(=O)c1ccc(Cl)cc1` [QC-84, 1-(4-chlorophenyl)-3-dimethylamino-propan-1-one], for which the IC50 at HO-1 (rat spleen) (setting [3]) and against HO-2 (rat brain) (setting [4]) was above 100 µM each time.

As to `N[C@@H](Cc1c[nH]cn1)C(=O)O` [QC-68, L-histidine hydrochloride monohydrate, reference compound], the IC50 on HO-1 (rat spleen) (setting [1]) and at HO-2 (rat brain) (setting [2]) was above 100 µM each time.

`Brc1ccc(CCCCn2ccnc2)cc1` [QC-199, 1-[4-(4-Bromo-phenyl)-butyl]-1H-imidazole hydrochloride]: the results for the IC50 on HO-1 (rat spleen) (setting [5]) and on HO-2 (rat brain) (setting [6]) were 0.25 ± 0.02 µM and 6.7 ± 0.3 µM, respectively.

`c1cn(CCCCCCn2ccnc2)cn1` [QC-89, 1,6-bis-(1H-imidazol-1-yl)hexane dihydrochloride]: the IC50 on HO-1 (rat spleen) (setting [1]) and on HO-2 (rat brain) (setting [2]) was above 100 µM in each case.

On to `Oc1ccc(OC[C@H]2CO[C@@](CCc3ccc(Cl)cc3)(Cn3ccnc3)O2)cc1` [QC-46, (2R,4S)-4-{2-[2-(4-Chlorophenyl)ethyl]-2-imidazol-1-ylmethyl-[1,3]dioxolan-4-ylmethoxy}phenol hydrochloride], for which the IC50 was 1.8 ± 0.5 µM at HO-1 (rat spleen) (setting [1]) and 7.1 ± 0.7 µM on HO-2 (rat brain) (setting [2]).

Regarding `O=C(n1ccnc1)C(F)(F)F` [QC-77, N-trifluoroacetylimidazole], the IC50 on HO-1 (rat spleen) (setting [1]) and at HO-2 (rat brain) (setting [2]) was above 100 µM in each case.

`N#Cc1ncn(CC(=O)CCc2ccccc2)c1C#N` [QC-154, 1-(2-Oxo-4-phenylbutyl)-1H-imidazole-4,5-dicarbonitrile hydrochloride]: the IC50 on HO-1 (rat spleen) (setting [5]) and against HO-2 (rat brain) (setting [6]) was above 100 µM throughout.

Turning to `O=C(CCc1ccccc1)Cn1ncnn1` [QC-117, 4-Phenyl-1-tetrazol-2-yl-butan-2-one hydrochloride], the values for the IC50 against HO-1 (rat spleen) (setting [3]) and on HO-2 (rat brain) (setting [2]) were 9.6 ± 0.2 µM and 37 ± 25 µM, respectively.

Regarding `Cc1ncc[nH]1` [QC-45, 2-methylimidazole, reference compound], the IC50 on HO-1 (rat spleen) (setting [1]) and at HO-2 (rat brain) (setting [2]) was above 100 µM each time.

As to `CC(=O)NCCc1c[nH]cn1` [QC-138, N-[2-(1H-Imidazol-4-yl)-ethyl]-acetamide], the IC50 at HO-1 (rat spleen) (setting [1]) and at HO-2 (rat brain) (setting [2]) was above 100 µM each time.

Consider `Cc1ccc(C(=O)Cn2ccnc2)cc1` [QC-165, 2-Imidazol-1-yl-1-p-tolyl-ethanone hydrochloride], for which the IC50 came out at 17 ± 4 µM against HO-1 (rat spleen) (setting [5]) and 69 ± 16 µM at HO-2 (rat brain) (setting [6]).

As to `O=C(CCn1ccnc1)c1ccccc1` [QC-242, 3-(1H-Imidazol-1-yl)-1-phenyl-propan-1-one hydrochloride], the IC50 at HO-1 (rat spleen) (setting [5]) was 79 µM; at HO-2 (rat brain) (setting [6]) it was above 100 µM.

On to `CCN1CCN(c2nc3ccccc3[nH]2)CC1` [QC-148, 2-(4-Ethyl-piperazin-1-yl)-1H-benzoimidazole dihydrochloride hemihydrate], for which the IC50 on HO-1 (rat spleen) (setting [7]) and on HO-2 (rat brain) (setting [8]) was above 100 µM throughout.

In the case of `c1ccc(C2(Cn3cncn3)OCCO2)cc1` [QC-254, 1-(2-Phenyl-[1,3]dioxolan-2-ylmethyl-1H-[1,2,4]triazole hydrochloride], the IC50 at HO-1 (rat spleen) (setting [5]) is 144 ± 15 µM; on HO-2 (rat brain) (setting [6]) it was above 100 µM.
